Data: article PMC3724985, “Isolation, biochemical characterization, and cloning of a bacteriocin from the poultry-associated Staphylococcus aureus strain CH-91” (Applied Microbiology and Biotechnology, 2012)
Values after ≈ are worked out from the molar mass of the structure shown.

Assays:
staphylococcal strains = type: cell-based, Staphylococcus spp.
Excerpt: (§1) S. aureus CH-91 was kindly provided by S. Takeuchi from Fukui Prefectural University, Japan (Takeuchi et al. [1999]). The strain has been deposited in the DSMZ collection under the number DSM 26258. Bacillus licheniformis NCTC 7224, Bacillus subtilis ATCC 6633, Lactococcus lactis subsp. lactis LOCK 0869, Micrococcus luteus strains DSMZ 20030 and CBM (clinical isolate), Sarcina lutea ATCC 9341, S. aureus strains ATCC 25923, M-122 (Polakowska et al. [2012]), Newman and RN4220, S. epidermidis ATCC 35347, Staphylococcus intermedius ATCC 29666, Staphylococcus pseudintermedius LMG 22219 (Devriese et al. [2005]), Staphylococcus saprophyticus ATCC 49453, Staphylococcus xylosus strains isolated from the skin of healthy chickens, Streptococcus mutans ATCC 25175, Streptococcus pneumoniae ATCC 49619, Escherichia coli K12 ATCC 10798, Klebsiella pneumoniae, Serratia marcescens, and Sphingomonas sp. AMC 3962 (Dziga et al. [2012]) were obtained from the collections of The Faculty of Biochemistry, Biophysics and Biotechnology, Jagiellonian University, Krakow, Poland. […]
(§2) The bactericidal activity of BacCH91 was determined using the micro-dilution method in compliance with Clinical and Laboratory Standards Institute guidelines M7-A7 (CLSI [2006]). […] After overnight incubation at 37 °C, the optical density (OD) at 600 nm was measured. […]

[1] = pH stability, residual activity by radial diffusion assay; type: physicochemical; details: 30 μM, S. lutea ATCC 9341, triplicate
Description: To test the pH stability of BacCH91, a water solution of the bacteriocin (final concentration, 30 μM) was evaporated in a vacuum centrifuge and re-dissolved in (a) 100 mM sodium citrate pH 3.0, 4.0, 5.0, and 6.0; […] The solutions were incubated for 3 h at RT, and the residual activity of the bacteriocin was determined using the radial diffusion assay. The temperature stability of BacCH91 (30 μM final concentration) was determined in 50 mM Tris–HCl pH 7.4, 0.15 M NaCl and 50 mM bis-Tris pH 6.4, 0.15 M NaCl. The solutions were incubated for 1, 6, and 24 h at 37, 60, 80, and 99 °C. […] All of the above experiments were performed in triplicate. The final results are presented as means ± SD.

Micrococcus luteus CBM = experiment: MIC, micro-dilution method; type: cell-based; details: M. luteus CBM, CLSI M7-A7, cation-adjusted MHB
Excerpt: as §1, §2

[2] = system: Micrococcus luteus DSMZ 20030; experiment: MIC, micro-dilution method; type: cell-based; details: M. luteus DSMZ 20030, as printed in the text, CLSI M7-A7, cation-adjusted MHB
Excerpt: as §1, §2

[3] = system: Staphylococcus aureus RN4220; type: cell-based; details: Staphylococcus aureus RN4220, bacteriocin gene positive strain; micro-dilution, CLSI M7-A7, cation-adjusted MHB, overnight 37 °C, OD 600 nm
Excerpt: (§3) S. aureus CH-91 was kindly provided by S. Takeuchi from Fukui Prefectural University, Japan (Takeuchi et al. [1999]). The strain has been deposited in the DSMZ collection under the number DSM 26258. Bacillus licheniformis NCTC 7224, Bacillus subtilis ATCC 6633, Lactococcus lactis subsp. lactis LOCK 0869, Micrococcus luteus strains DSMZ 20030 and CBM (clinical isolate), Sarcina lutea ATCC 9341, S. aureus strains ATCC 25923, M-122 (Polakowska et al. [2012]), Newman and RN4220, S. epidermidis ATCC 35347, Staphylococcus intermedius ATCC 29666, Staphylococcus pseudintermedius LMG 22219 (Devriese et al. [2005]), Staphylococcus saprophyticus ATCC 49453, Staphylococcus xylosus strains isolated from the skin of healthy chickens, Streptococcus mutans ATCC 25175, Streptococcus pneumoniae ATCC 49619, Escherichia coli K12 ATCC 10798, Klebsiella pneumoniae, Serratia marcescens, and Sphingomonas sp. AMC 3962 (Dziga et al. [2012]) were obtained from the collections of The Faculty of Biochemistry, Biophysics and Biotechnology, Jagiellonian University, Krakow, Poland. A list of strains used for assessment of the general occurrence of the bacteriocin gene is provided in the Electronic supplementary materials (ESM; Table S1). Gram-positive and Gram-negative bacteria were maintained at 37 °C in tryptic soy broth (TSB) and Luria-Bertani broth (both obtained from Sigma), respectively.
(§4) The bactericidal activity of BacCH91 was determined using the micro-dilution method in compliance with Clinical and Laboratory Standards Institute guidelines M7-A7 (CLSI [2006]). Briefly, the bacteria were either cultivated in cation-adjusted MHB to the early exponential phase or grown overnight on agar-solidified MHB supplemented with 2.5 % LHB in the case of Streptococcus spp. and L. lactis. Subsequently, the bacteria were diluted to 1 × 10^6 CFU/ml either in MHB or in MHB supplemented with 5 % LHB, in the case of the latter bacteria. Fifty-microliter portions of bacterial suspension were mixed with an equal volume of MHB containing serial twofold dilutions of bacteriocin. After overnight incubation at 37 °C, the optical density (OD) at 600 nm was measured. The MIC was defined as the minimum bacteriocin concentration for which the increase in OD was not observed compared to uninoculated broth.

[4] = system: Staphylococcus aureus M-122; type: cell-based
Excerpt: as §3, §4

Klebsiella pneumoniae = type: cell-based
Excerpt: as §3, §4

[5] = system: Bacillus licheniformis NCTC 7224; type: cell-based
Excerpt: as §3, §4

[6] = system: Bacillus subtilis ATCC 6633; type: cell-based
Excerpt: as §3, §4

Sarcina lutea ATCC 9341 = type: cell-based
Excerpt: as §3, §4

[7] = system: Streptococcus mutans ATCC 25175; type: cell-based
Excerpt: as §3, §4

[8] = system: Escherichia coli K12 ATCC 10798; type: cell-based
Excerpt: as §3, §4

[9] = system: Staphylococcus xylosus kw 2,5; type: cell-based
Excerpt: as §3, §4

[10] = system: Sphingomonas sp. AMC 3962; type: cell-based
Excerpt: as §3, §4

[11] = system: Staphylococcus epidermidis ATCC 35347; type: cell-based
Excerpt: as §3, §4

[12] = system: Staphylococcus aureus CH91; type: cell-based
Excerpt: as §3, §4

[13] = system: Staphylococcus pseudintermedius LMG 22219; type: cell-based
Excerpt: as §3, §4

[14] = system: Staphylococcus saprophiticus ATCC 49453; type: cell-based
Excerpt: as §3, §4

[15] = system: Staphylococcus aureus Newman; type: cell-based
Excerpt: as §3, §4

[16] = system: Streptococcus pneumoniae ATCC 49619; type: cell-based
Excerpt: as §3, §4

C/C=C(\NC(=O)[C@H](CCCCN)NC(=O)CNC(=O)[C@@H]1CS[C@@H](C)[C@@H](NC(=O)[C@@H]2CSC[C@@H](NC(=O)/C(=C/C)NC(=O)[C@@H](N)[C@@H](C)CC)C(=O)N[C@@H](Cc3ccccc3)C(=O)N[C@@H]([C@@H](C)CC)C(=O)NCC(=O)N2)C(=O)N2CCC[C@H]2C(=O)NCC(=O)N1)C(=O)NCC(=O)N[C@@H]1CSC[C@@H]2NC(=O)[C@H](Cc3ccccc3)NC(=O)[C@@H](CS/C=C\NC2=O)NC(=O)[C@H](CC(N)=O)NC(=O)[C@H](Cc2ccccc2)NC1=O [BacCH91]
MIC (staphylococcal strains): 1.3 to 6.0 µM
residual bactericidal activity after incubation at pH 11.0 ([1]; 100 mM 3-cyclohexylamino-1-propanesulphonic acid-NaOH pH 11.0, 3 h at RT): complete inactivation
residual bactericidal activity after incubation at pH 7.0 and higher ([1]; 100 mM Tris–HCl pH 7.0, 8.0, 9.0 and 100 mM CAPS-NaOH pH 10.0, 11.0, 3 h at RT): gradual loss of bactericidal activity
residual bactericidal activity after incubation at pH 3.0–6.0 ([1]; 100 mM sodium citrate pH 3.0, 4.0, 5.0, 6.0, 3 h at RT): retained full bactericidal activity
MIC (Micrococcus luteus CBM): 0.04 µM (≈ 0.0831 µg/mL)
MIC [2]: 0.0025 µM (≈ 0.00519 µg/mL)
MIC [3]: 6.0 µM (≈ 12.5 µg/mL)
MIC [4]: 4.0 µM (≈ 8.31 µg/mL)
MIC (Klebsiella pneumoniae): >100 µM
MIC [5]: 1.8 µM (≈ 3.74 µg/mL)
MIC [6]: 2.6 µM (≈ 5.4 µg/mL)
MIC (Sarcina lutea ATCC 9341): 0.31 µM (≈ 0.644 µg/mL)
MIC [7]: 2.0 µM (≈ 4.15 µg/mL)
MIC [8]: >100 µM
MIC [9]: 1.5 to 2.0 µM
MIC [10]: >100 µM
MIC [11]: 1.6 µM (≈ 3.32 µg/mL)
MIC [12]: 1.3 µM (≈ 2.7 µg/mL)
MIC [13]: 1.5 µM (≈ 3.11 µg/mL)
MIC [14]: 3.0 µM (≈ 6.23 µg/mL)
MIC [15]: 6.0 µM (≈ 12.5 µg/mL)
MIC [16]: 1.6 µM (≈ 3.32 µg/mL)
